According to ChEMBL document CHEMBL3880403, “Diaryl ethers as opioid receptor antagonist” (2006):

Legend:
Rattus norvegicus [1] = experiment: Ex vivo inhibition of [3H]-Diprenophine binding to mu opioid receptor in striatum/nucleus accumbens isolated from rat treated with compound at 7 mg/kg, po for 6 hrs measured after 30 mins post [3H]-Diprenophine addition to tissue relative to control; assay type: functional
Rattus norvegicus [2] = experiment: Ex vivo inhibition of [3H]-Diprenophine binding to delta opioid receptor in striatum/nucleus accumbens isolated from rat treated with compound at 7 mg/kg, po for 6 hrs measured after 30 mins post [3H]-Diprenophine addition to tissue relative to control; assay type: functional
Rattus norvegicus [3] = experiment: Ex vivo inhibition of [3H]-Diprenophine binding to kappa opioid receptor in striatum/nucleus accumbens isolated from rat treated with compound at 7 mg/kg, po for 6 hrs measured after 30 mins post [3H]-Diprenophine addition to tissue relative to control; assay type: functional
[4] = target: Mu-type opioid receptor (Homo sapiens) (UniProt P35372); experiment: Antagonist activity at mu opioid receptor (unknown origin) expressed in membranes assessed as inhibition of DAMGO1-induced GTP-gamma-[35S] binding after 4 hrs by micro beta scintillation counting analysis
[5] = target: Kappa-type opioid receptor (Homo sapiens) (UniProt P41145); experiment: Antagonist activity at kappa opioid receptor (unknown origin) expressed in membranes assessed as inhibition of U69593-induced GTP-gamma-[35S] binding after 4 hrs by micro beta scintillation counting analysis
[6] = target: Delta-type opioid receptor (Homo sapiens) (UniProt P41143); experiment: Antagonist activity at delta opioid receptor (unknown origin) expressed in membranes assessed as inhibition of DPDPE-induced GTP-gamma-[35S] binding after 4 hrs by micro beta scintillation counting analysis
Rattus norvegicus [7] = experiment: In vivo inhibition of opioid receptor in obese rat assessed as compound dose causing effective decrease in feeding behavior; assay type: functional
Rattus norvegicus [8] = experiment: Antiobesity activity in po dosed diet-induced obese rat assessed as inhibition of food consumption measured up to 24 hrs by indirect calorimetry assay; assay type: functional; conditions: read-out: MED
Rattus norvegicus [9] = experiment: Antiobesity activity in diet-induced obese rat assessed as energy balance at 3 mg/kg, po measured up to 24 hrs by indirect calorimetry assay; assay type: functional

Chain of Mu-type opioid receptor (Homo sapiens) (P35372 whole entry): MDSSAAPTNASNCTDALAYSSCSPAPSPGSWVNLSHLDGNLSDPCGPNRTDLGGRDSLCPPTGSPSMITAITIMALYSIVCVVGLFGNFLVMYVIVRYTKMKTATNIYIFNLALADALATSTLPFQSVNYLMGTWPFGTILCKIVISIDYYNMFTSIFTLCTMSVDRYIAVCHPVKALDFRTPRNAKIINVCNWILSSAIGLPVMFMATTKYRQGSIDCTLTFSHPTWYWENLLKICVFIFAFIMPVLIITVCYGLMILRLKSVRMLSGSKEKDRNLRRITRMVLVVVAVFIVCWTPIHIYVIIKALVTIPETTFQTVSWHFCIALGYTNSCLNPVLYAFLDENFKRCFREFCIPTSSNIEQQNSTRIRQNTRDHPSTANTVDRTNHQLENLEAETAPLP
Chain of Delta-type opioid receptor (Homo sapiens) (P41143 whole entry): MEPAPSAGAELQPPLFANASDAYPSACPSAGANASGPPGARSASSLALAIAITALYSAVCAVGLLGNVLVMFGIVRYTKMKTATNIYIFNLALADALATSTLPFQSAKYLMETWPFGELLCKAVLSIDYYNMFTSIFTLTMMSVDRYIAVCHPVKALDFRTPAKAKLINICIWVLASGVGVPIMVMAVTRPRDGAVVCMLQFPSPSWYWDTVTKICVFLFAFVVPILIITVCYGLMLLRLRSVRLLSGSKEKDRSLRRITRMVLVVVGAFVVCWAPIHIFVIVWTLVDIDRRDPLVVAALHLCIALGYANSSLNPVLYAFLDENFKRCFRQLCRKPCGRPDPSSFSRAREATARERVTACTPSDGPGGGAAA
Chain of Kappa-type opioid receptor (Homo sapiens) (P41145 whole entry): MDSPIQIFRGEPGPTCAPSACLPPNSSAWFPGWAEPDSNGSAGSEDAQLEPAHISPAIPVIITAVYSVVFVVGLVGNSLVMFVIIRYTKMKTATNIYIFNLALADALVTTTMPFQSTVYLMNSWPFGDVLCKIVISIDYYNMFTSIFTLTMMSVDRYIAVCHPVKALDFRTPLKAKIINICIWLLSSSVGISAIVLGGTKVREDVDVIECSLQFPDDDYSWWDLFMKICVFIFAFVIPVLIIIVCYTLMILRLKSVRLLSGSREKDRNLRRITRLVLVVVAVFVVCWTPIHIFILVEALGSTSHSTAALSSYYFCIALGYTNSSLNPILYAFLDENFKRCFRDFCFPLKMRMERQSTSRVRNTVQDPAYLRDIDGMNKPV

CC(C)(C)CCNCc1ccc(Oc2ccc(C(N)=O)cn2)c(Cl)c1
inhibition in vivo at 7 mg/kg (Rattus norvegicus [1]): 83%
inhibition in vivo at 7 mg/kg (Rattus norvegicus [2]): 83%
inhibition in vivo at 7 mg/kg (Rattus norvegicus [3]): 83%

CCCCNCc1ccc(Oc2ccc(C(N)=O)cn2)c(C)c1
inhibition in vivo at 7 mg/kg (Rattus norvegicus [1]): 38%
inhibition in vivo at 7 mg/kg (Rattus norvegicus [2]): 38%
inhibition in vivo at 7 mg/kg (Rattus norvegicus [3]): 38%

NC(=O)c1ccc(Oc2ccc(CCNCc3ccccc3)cc2Cl)nc1
Kb [4]: 0.843 nM
Kb [5]: 7.86 nM
Kb [6]: 17.5 nM

COc1cc(CNCCC(C)(C)C)ccc1Oc1ccc(C(N)=O)cn1
inhibition in vivo at 7 mg/kg (Rattus norvegicus [1]): 55%
inhibition in vivo at 7 mg/kg (Rattus norvegicus [2]): 55%
inhibition in vivo at 7 mg/kg (Rattus norvegicus [3]): 55%

NC(=O)c1ccc(Oc2ccc(CNCCc3ccc(F)cc3)cc2)cc1
inhibition in vivo at 7 mg/kg (Rattus norvegicus [1]): 50%
inhibition in vivo at 7 mg/kg (Rattus norvegicus [2]): 50%
inhibition in vivo at 7 mg/kg (Rattus norvegicus [3]): 50%

CCCCCNCc1ccc(Oc2ccc(C(N)=O)cn2)c(OC)c1
inhibition in vivo at 7 mg/kg (Rattus norvegicus [1]): 75%
inhibition in vivo at 7 mg/kg (Rattus norvegicus [2]): 75%
inhibition in vivo at 7 mg/kg (Rattus norvegicus [3]): 75%

COc1cc(CNCCc2ccccc2F)ccc1Oc1ccc(C(N)=O)cn1
inhibition in vivo at 7 mg/kg (Rattus norvegicus [1]): 54%
inhibition in vivo at 7 mg/kg (Rattus norvegicus [2]): 54%
inhibition in vivo at 7 mg/kg (Rattus norvegicus [3]): 54%

CCCCCNCc1ccc(Oc2ccc(C(N)=O)nc2)c(F)c1
inhibition in vivo at 7 mg/kg (Rattus norvegicus [1]): 55%
inhibition in vivo at 7 mg/kg (Rattus norvegicus [2]): 55%
inhibition in vivo at 7 mg/kg (Rattus norvegicus [3]): 55%

NC(=O)c1ccc(Oc2ccc(CNCCc3cccc(F)c3)cc2)nc1
inhibition in vivo at 7 mg/kg (Rattus norvegicus [1]): 40%
Kb [4]: 0.072 nM
Kb [5]: 0.894 nM
Kb [6]: 0.677 nM
inhibition in vivo at 7 mg/kg (Rattus norvegicus [2]): 40%
inhibition in vivo at 7 mg/kg (Rattus norvegicus [3]): 40%

Cc1cc(CNCCC(C)C)ccc1Oc1ccc(C(N)=O)cc1F
inhibition in vivo at 7 mg/kg (Rattus norvegicus [1]): 58%
inhibition in vivo at 7 mg/kg (Rattus norvegicus [2]): 58%
inhibition in vivo at 7 mg/kg (Rattus norvegicus [3]): 58%

Cc1ccccc1CNCCc1ccc(Oc2ccc(C(N)=O)cn2)c(Cl)c1
Kb [4]: 0.281 nM
Kb [5]: 3.38 nM
Kb [6]: 8.9 nM

NC(=O)c1ccc(Oc2ccc(CCNCc3cccc(F)c3)cc2Cl)nc1
Kb [4]: 0.41 nM
Kb [5]: 4.5 nM
Kb [6]: 5.78 nM

Cc1cc(CNCCC(C)C)ccc1Oc1ccc(C(N)=O)cn1
inhibition in vivo at 7 mg/kg (Rattus norvegicus [1]): 55%
inhibition in vivo at 7 mg/kg (Rattus norvegicus [2]): 55%
inhibition in vivo at 7 mg/kg (Rattus norvegicus [3]): 55%
ED (Rattus norvegicus [7]): 0.3 mg/kg
minimal effective dose (Rattus norvegicus [8]): 0.3 mg/kg
Activity (Rattus norvegicus [9]): -68 kcal/kg/day

CC(C)CCNCc1ccc(Oc2ccc(C(N)=O)cn2)cc1
inhibition in vivo at 7 mg/kg (Rattus norvegicus [1]): > 40%
Kb [4]: 0.2 nM
Kb [5]: 0.4 nM
Kb [6]: 4.4 nM
inhibition in vivo at 7 mg/kg (Rattus norvegicus [2]): > 40%
inhibition in vivo at 7 mg/kg (Rattus norvegicus [3]): > 40%
ED (Rattus norvegicus [7]): 0.3 mg/kg
minimal effective dose (Rattus norvegicus [8]): 0.3 mg/kg
Activity (Rattus norvegicus [9]): -35 kcal/kg/day

O=C1CC[C@@]2(O)[C@H]3Cc4ccc(O)c5c4[C@@]2(CCN3CC2CC2)[C@H]1O5 [NALTREXONE]
inhibition in vivo at 7 mg/kg (Rattus norvegicus [1]): < 40%
inhibition in vivo at 7 mg/kg (Rattus norvegicus [2]): < 40%
inhibition in vivo at 7 mg/kg (Rattus norvegicus [3]): < 40%
minimal effective dose (Rattus norvegicus [8]): > 10 mg/kg

C[C@H]1CN(CC[C@H](O)C2CCCCC2)CC[C@@]1(C)c1cccc(O)c1
inhibition in vivo at 7 mg/kg (Rattus norvegicus [1]): > 40%
inhibition in vivo at 7 mg/kg (Rattus norvegicus [2]): > 40%
inhibition in vivo at 7 mg/kg (Rattus norvegicus [3]): > 40%
minimal effective dose (Rattus norvegicus [8]): 1 mg/kg
Activity (Rattus norvegicus [9]): -36 kcal/kg/day

CC(C)(C)CCNCc1ccc(Oc2ccc(C(N)=O)cn2)cc1
inhibition in vivo at 7 mg/kg (Rattus norvegicus [1]): 62%
inhibition in vivo at 7 mg/kg (Rattus norvegicus [2]): 62%
inhibition in vivo at 7 mg/kg (Rattus norvegicus [3]): 62%
ED (Rattus norvegicus [7]): <=3 ug/kg
minimal effective dose (Rattus norvegicus [8]): ≤ 3 mg/kg
Activity (Rattus norvegicus [9]): -56 kcal/kg/day

Cc1cc(CNCCC(C)(C)C)ccc1Oc1ccc(C(N)=O)cn1
inhibition in vivo at 7 mg/kg (Rattus norvegicus [1]): 59%
inhibition in vivo at 7 mg/kg (Rattus norvegicus [2]): 59%
inhibition in vivo at 7 mg/kg (Rattus norvegicus [3]): 59%

CC(C)CCNCc1ccc(Oc2ccc(C(N)=O)cn2)c(Cl)c1
inhibition in vivo at 7 mg/kg (Rattus norvegicus [1]): 77%
inhibition in vivo at 7 mg/kg (Rattus norvegicus [2]): 77%
inhibition in vivo at 7 mg/kg (Rattus norvegicus [3]): 77%

NC(=O)c1ccc(Oc2ccc(CCNCc3cccc(Cl)c3)cc2Cl)nc1
Kb [4]: 0.503 nM
Kb [5]: 6.86 nM
Kb [6]: 30.1 nM

CCCCCNCc1ccc(Oc2ccc(C(N)=O)cc2)cc1
ED (Rattus norvegicus [7]): 3 mg/kg
minimal effective dose (Rattus norvegicus [8]): 3 mg/kg
Activity (Rattus norvegicus [9]): -65 kcal/kg/day

NC(=O)c1ccc(Oc2ccc(CNCCc3cccs3)cc2)nc1
inhibition in vivo at 7 mg/kg (Rattus norvegicus [1]): > 40%
Kb [4]: 0.068 nM
Kb [5]: 0.355 nM
Kb [6]: 0.708 nM
inhibition in vivo at 7 mg/kg (Rattus norvegicus [2]): > 40%
inhibition in vivo at 7 mg/kg (Rattus norvegicus [3]): > 40%
ED (Rattus norvegicus [7]): <=3 ug/kg
minimal effective dose (Rattus norvegicus [8]): ≤ 3 mg/kg
Activity (Rattus norvegicus [9]): -19 kcal/kg/day

NC(=O)c1ccc(Oc2ccc(CNCCC3CCCC3)cc2)nc1
inhibition in vivo at 7 mg/kg (Rattus norvegicus [1]): > 60%
inhibition in vivo at 7 mg/kg (Rattus norvegicus [2]): > 60%
inhibition in vivo at 7 mg/kg (Rattus norvegicus [3]): > 60%
ED (Rattus norvegicus [7]): <=3 ug/kg
minimal effective dose (Rattus norvegicus [8]): ≤ 3 mg/kg
Activity (Rattus norvegicus [9]): -39 kcal/kg/day

CC(C)CCNCc1ccc(Oc2ccc(C(N)=O)cn2)c(F)c1
inhibition in vivo at 7 mg/kg (Rattus norvegicus [1]): > 65%
inhibition in vivo at 7 mg/kg (Rattus norvegicus [2]): > 65%
inhibition in vivo at 7 mg/kg (Rattus norvegicus [3]): > 65%
ED (Rattus norvegicus [7]): 0.3 mg/kg
minimal effective dose (Rattus norvegicus [8]): 0.3 mg/kg
Activity (Rattus norvegicus [9]): -81 kcal/kg/day

NC(=O)c1ccc(Oc2ccc(CNCCC3CCCCC3)cc2)nc1
inhibition in vivo at 7 mg/kg (Rattus norvegicus [1]): 79%
inhibition in vivo at 7 mg/kg (Rattus norvegicus [2]): 79%
inhibition in vivo at 7 mg/kg (Rattus norvegicus [3]): 79%

NC(=O)c1ccc(Oc2ccc3c(c2)CCCN(CCc2ccccc2)C3)nc1
inhibition in vivo at 7 mg/kg (Rattus norvegicus [1]): 62%
inhibition in vivo at 7 mg/kg (Rattus norvegicus [2]): 62%
inhibition in vivo at 7 mg/kg (Rattus norvegicus [3]): 62%
